Test results reported in patent publication US20230015823A1, “METHODS OF ADMINISTERING VOXELOTOR” (Global Blood Therapeutics, Inc., priority 2019, published 2023).

Test: Phase 1 hepatic impairment study: safety evaluation (TEAEs)
Format: in vivo
Source text: This was a Phase 1, multiple-center, nonrandomized, open-label, parallel group study of a single oral dose of voxelotor administered in subjects with mild (Child-Pugh A; score 5 to 6 points), moderate (Child-Pugh B; score 7 to 9 points), or severe (Child-Pugh C; score 10 to 15 points) hepatic impairment and subjects with normal hepatic function. This study was designed to assess the effects of mild, moderate, or severe hepatic impairment on the PK of a single oral dose of voxelotor. Routine safety assessments (AE monitoring, vital signs, physical examinations, clinical laboratory tests, and ECGs) were performed.
Eligible subjects received a single oral dose of voxelotor 1500 mg (5×300-mg capsules) on Day 1 (for normal hepatic function, mild and moderate hepatic impairment). A lower dose of voxelotor 600 mg (2×300-mg capsules) was administered for the subjects with severe hepatic impairment.
Adverse events and concomitant medication use were monitored throughout the study. Safety assessments, including physical examinations, vital signs assessments, 12-lead ECGs, and clinical laboratory tests, were performed. Whole blood and plasma concentrations of voxelotor were determined using validated assays.
All statistical analyses were performed using the safety population. All AEs were coded to SOC and PT using MedDRA (Version 19.0) and presented by subject in data listings. A treatment-emergent AE was defined as an AE that was not present prior to treatment with study drug, but appeared following treatment or was present at treatment initiation but worsened during treatment. An AE that was present at treatment initiation but resolved and then reappeared while the subject was on treatment was a TEAE (regardless of the intensity of the AE when the treatment was initiated). Programmatically, an AE was classified as a TEAE if the start date and time occurred on or after the start date and time of first study drug dosing. The overall incidence of TEAEs (number and percentage of subjects) as well as the number of events were summarized by hepatic function group, severity, SAEs, causally related TEAE and SAEs, TEAEs leading to study or treatment discontinuation, life-threatening SAEs, and SAEs resulting in death.
The TEAEs were summarized and tabulated at both the subject (number [%] of subjects) and event (number of events) level: (1) by hepatic function group, SOC, and PT; (2) by hepatic function group, SOC, PT, and maximum reported severity; and (3) by hepatic function group, SOC, PT, and maximum relationship to study drug.

CC(C)n1nccc1-c1ncccc1COc1cccc(O)c1C=O [voxelotor, 2-hydroxy-6-((2-(1-isopropyl-1H-pyrazol-5-yl)pyridin-3-yl)methoxy)benzaldehyde]
deaths, SAEs, AEs leading to discontinuation (all hepatic function groups): No deaths, other serious adverse events (SAEs), and no AEs leading to discontinuation of the study were reported | subjects reporting mild TEAEs (mild hepatic impairment, 4 of 7 subjects): 57.1% | subjects reporting a moderate TEAE (moderate hepatic impairment, 1 of 7 subjects): 14.3% | subjects with TEAE of diarrhea (mild) (moderate hepatic impairment, 1500 mg, 5 of 7 subjects): 71.4% | subjects reporting mild TEAEs (moderate hepatic impairment, 5 of 7 subjects): 71.4% | TEAEs (normal hepatic function, 1500 mg): No TEAEs were reported | subjects with diarrhea (most frequently reported TEAE) (overall, 7 events in 7 subjects): 25% | subjects reporting TEAEs (overall, 11 subjects, 17 TEAEs): 39.3% | subjects with TEAEs possibly/probably related to study drug (overall, seven subjects, 8 TEAEs): 25.0% | subjects reporting a mild TEAE and a moderate TEAE (severe hepatic impairment, 600 mg, 1 of 7 subjects): 14.3% | safety and tolerability (single oral dose 1500 mg (mild, moderate, normal) or 600 mg (severe hepatic impairment)): safe and well tolerated
